# Assay results from patent publication US20110312890A1, “ACETYLATED AMINO ACIDS AS ANTI-PLATELET AGENTS, NUTRITIONAL AND VITAMIN SUPPLEMENTS” (SIGNATURE R&D HOLDINGS, LLC, priority 2005, published 2011).
# Where “and” joins values, the source holds several entries; their conditions need not be identical. Identical values can stand only once. Non-standard residues stand in square brackets, D forms with d. Residues, ends and D or L forms follow the SMILES beside them. ξ: configuration not given here. ξY = NC(Cc1ccc(O)cc1)C(=O)O; ξS = NC(CO)C(=O)O
# Experiments:
# [1] = Hygroscopicity and handling stability of salts and zwitterions; type: physicochemical
# Protocol: Salts of compound O-Acetyl-(L)-Serine-O—(O-Acetyl)-L-Serine with various acids, including HCl, MeSO3H and tartaric acid, were prepared. […] The salt with tartaric acid was unstable and produced the zwitterion son attempted recrystallization from water/acetonitrile. The zwitterions of all three compounds were the most convenient forms (non-hygroscopic) for preparation. If needed, salts are prepared in situ during the formulation process.
# (§1) A sample of the compound of Ex 3 was tested in D2O with 1 drop of DCl added for a better solubility of the material. […] Stability of the compound of Ex 3 in an aqueous solution as a salt of tartaric acid is much greater. A 400-mg sample of the salt was attempted to recrystallize from 6 ml of boiling acetonitrile and 20 drops of water. The material crystallized as a zwitterion (not a tartrate) with minor traces of the decomposition. However, the recovery was 132 mg only.
# (§2) c. The material of Ex 3 as a zwitterion was recrystallized from aqueous 40% EtOH while heating at 70 C for approximately 20 minutes. […] In a solution of 8% acetonitrile/92% aqueous 0.05 mol buffer of KH2PO4 (pH 5). […] Temperature of the analyses greatly affected the outcome of the analyses.
# [2] = Stability in solution or solid state followed by NMR; type: physicochemical
# Protocol: (§3) In addition, HPLC analysis of the products indicated faster degradation when determinations were made at higher temperatures (40 or 25° C. compared to 10 or 15° C.). The purity of the compounds of Ex 4 varied by as much as 20% when the analysis was performed at 25 and 10° C., respectively.
# as §1
# (§4) f. Instability of the compound of Ex 4 in an aqueous solution as a zwitterion was observed when a recovery of an additional amount of the material from a large freeze-drying flask was attempted. Simple dissolution of a residual material on the walls with DI water followed by freeze-drying has decrease estimated by NMR purity from 95-96% to 87-88%. • g. […] The same sample analyzed at 25 C and 10 C had difference in purity 13-15%, e.g., either 78-80% or 93%.
# (§5) Instability of the compound of Ex 5 in an aqueous solution as a zwitterion was observed while doing a purification of an additional amount of the material on C8 silica gel with water/acetonitrile as eluent. • j. The material of the compound of Ex 5 was decomposing faster during HPLC analysis when temperature of the thermostat was higher. The same sample analyzed at 40 C and 15 C had purity 97% or 99%, correspondingly. • k.
# [3] = Stability followed by HPLC purity (time in solution, temperature of analysis); type: physicochemical; details: for HPLC purity, same sample analyzed at 10 C: temperature of analysis 10 C (Ex 3: pH 4.5); for HPLC purity, same sample analyzed at 40 C: temperature of analysis 40 C
# Protocol: as §3, §2, §4, §5
# platelet aggregation [4] = assay: Whole blood clotting time by capillary tube method in human volunteers; type: in vivo; details: for Max % Increase in clotting time: versus time zero
# Protocol: A Test Method was developed to determine clotting time to evaluate the anti, platelet aggregation effect of O-acetyl-L-Tyrosine (OAT) by employing capillary tube method in two human volunteers.
# 1. Dose Strength: Volunteer 1 (90 Kg) 1000 mg, Volunteer 2 (60 Kg) 350 mg of OAT
# 3. Route of Administration: Single exposure by […]. 4. Blank Control Self, time zero clotting time
# 600 mg of O-Acetyl-L-Serine-O-Acetyl-L-Tyrouine was administered to a single human volunteer who weighs 136 lbs and is […]. The procedure was conducted using the protocol of Example 2, except the drug administered was O-Acetyl-L-Serine-O-Acetyl-L-Tyrosine. The results are depicted in FIG. 3.
# platelet aggregation [5] = assay: Clotting time by capillary tube method in Swiss Albino rats (anti platelet aggregation effect); type: in vivo; details: for Clotting time: OAS study, 2 hours post dosing, HCl salt; for Clotting time / Clotting time in minutes, After 4 hrs of administration / Clotting time in minutes, After 24 hrs of administration: single oral gavage; for Significance of clotting times at all dose levels and between the dose levels (FIG. 1): rats, 10-100 mg/kg, average of 5 rats, P<0.5 [sic]; for Clotting time in minutes, After 4 hrs of administration / Clotting time in minutes, After 24 hrs of administration: OAT study
# Protocol: A Test Method was developed to determine clotting time to evaluate the anti platelet aggregation effect of O-acetyl-L-Serine HCl salt (OAS), and O-acetyl-L-Tyrosine (OAT) by employing a capillary tube method using Swiss Albino Rats as the test system.
# Young 5-6 weeks old Swiss Albino rats weighing about 200 Gm were used in the following protocol. They were obtained from an established animal supplier.
# 1. Dose Strength: 10, 20, 50 and 100 mg/kg of OAS and OAT
# 3. Route of Administration: Single exposure by oral gavage. 4. No. of animals per group: 5
# Experimental procedure: The rats were fasted for 18-20 hours before dosing. A Syringe attached to a 16 gauge blunt tipped canula was used for this purpose. Two hours after dosing, the animals were provided with feed. 24 hours (±10 minutes) after the administration of the drug, blood samples were collected (0.2 ml approx) in capillary tubes. Animals were anaesthetized by mild ether inhalation by keeping a cotton swab soaked in ether near the nostrils of the animal. Blood was collected from the orbital sinus onto the capillary tube. […] For the confirmation of clotting, clotting as checked 30 seconds after the last observed clotting. An increase in clotting time compared to vehicle is an index of inhibition of platelet aggregation.
# […] With OAS, only one clotting time measurement, at 2 hours post dosing, was performed.
# In FIG. 1, the clotting time in minutes was plotted against Log of the dose in mg/kg, each point being an average of clotting time obtained in 5 rats. A value of zero was assigned to vehicle control (zero dose). […] (AceTyro=O-Acetyl-L-Tyrosine and AceSer=O-Acetyl-L-Serine HCl).
# [6] = 8% acetonitrile/92% aqueous 0.05 mol buffer of KH2PO4 (pH 5)
# [7] = single human volunteer, 136 lbs, 600 mg
# [8] = Group-2, individual rats, likely 10 mg/kg
# [9] = Group-3, individual rats, likely 20 mg/kg
# [10] = Group-4, individual rats, likely 50 mg/kg
# [11] = Group-5, individual rats, likely 100 mg/kg
structure (smiles),measurement,setting,value
"CC(=O)OC[C@H](NC(=O)[C@@H](N)COC(C)=O)C(=O)O [Ex 3, O-acetyl-(L)-serine-O-acetyl-(L)-serine] (H-Ser(Ac)-Ser(Ac)-OH)",Hygroscopicity of salts,"[1]; salts with HCl, MeSO3H and tartaric acid",hygroscopic
same,Stability of the salt with tartaric acid on attempted recrystallization,"[1]; water/acetonitrile, produced the zwitterion",unstable
"CC(=O)OCC(NC(=O)[C@@H](N)COC(C)=O)C(=O)O (stereo partly shown) [Ex 3, O-acetyl-(L)-serine-O-acetyl-(L)-serine] (H-Ser(Ac)-[ξS](Ac)-OH)",Stability in an aqueous solution as a salt of tartaric acid,[1]; compared with D2O/DCl sample,much greater
same,By-product on recrystallization from aqueous 40% EtOH,"[1]; zwitterion, heating at 70 C for approximately 20 minutes, mother liquor","Significant accumulation of the O, N-acetyl shift's by-product"
same,"Stability in solutions during isolation, purification and analyses (qualitative)",[2],Certain instability
same,NMR purity of the fresh prepared sample,[2]; D2O with 1 drop of DCl,about 95%
same,NMR sample after 4 days at room temperature,"[2]; D2O with 1 drop of DCl, three sets of signals found",severe decomposition
same,HPLC purity after 5 days after dissolution,[3]; [6],95.7%
same,HPLC purity in solution before storage,[3]; [6],97.3%
same,"HPLC purity, same sample analyzed at 10 C",[3],99.4%
same,"HPLC purity, same sample analyzed at 40 C",[3],97.3%
"CC(=O)OC[C@H](N)C(=O)N[C@H](C(=O)O)[C@@H](C)OC(C)=O [Ex 4, O-acetyl-(L)-serine-O-acetyl-(L)-threonine] (H-Ser(Ac)-Thr(Ac)-OH)","Stability in solutions during isolation, purification and analyses (qualitative)",[2],greatest instability in the whole series
same,Purity estimated by NMR before re-dissolution,[2]; zwitterion,95-96%
same,Purity estimated by NMR after dissolution with DI water followed by freeze-drying,"[2]; zwitterion, aqueous solution",87-88%
same,Variation of purity between HPLC analysis at 25 and 10° C.,[3],≤ 20%
same,Difference in HPLC purity between analysis at 25 C and 10 C,[3]; same sample,13-15%
same,"HPLC purity, same sample analyzed at 10 C",[3],93%
same,"HPLC purity, same sample analyzed at 25 C",[3]; temperature of analysis 25 C,78-80%
"CC(=O)OC[C@H](N)C(=O)NC(Cc1ccc(OC(C)=O)cc1)C(=O)O (stereo partly shown) [Ex 5, O-acetyl-(L)-serine-O-acetyl-(L)-tyrosine] (H-Ser(Ac)-[ξY](Ac)-OH)","Stability in solutions during isolation, purification and analyses (qualitative)",[2],comparable stability of relative to Compound F
same,"O, N-shift by-product formed after 26 hours",[2]; D2O solution (NMR sample),about 3.4%
same,Decomposition in a solid state after 5 days of storage at 25 C,"[2]; batch B, freshly dissolved material, NMR",a trace of the signal at 3.7 ppm (CH2OH group) was observed
same,"O, N-shift impurity after 5 days",[2]; same NMR sample in D2O,4.7%
same,"Anti platelet activity (blood clotting time, FIG. 3)",platelet aggregation [4]; [7],significant anti platelet activity
same,Period of significant anti platelet activity,platelet aggregation [4]; [7],200 h
same,"HPLC purity, same sample analyzed at 15 C",[3]; temperature of analysis 15 C,99%
same,"HPLC purity, same sample analyzed at 40 C",[3],97%
"CC(=O)OC[C@H](N)C(=O)O.Cl [OAS, O-acetyl-L-Serine HCl salt]",Clotting time,platelet aggregation [5]; [8],6 minutes (2×) and 8 minutes and 9 minutes (2×)
same,Clotting time,platelet aggregation [5]; [9],9 minutes (3×) and 8 minutes (2×)
same,Clotting time,platelet aggregation [5]; [10],19 min and 20 min and 16 min and 17 min and 15 min
same,Clotting time,platelet aggregation [5]; [11],26 minutes (2×) and 22 minutes and 30 minutes and 29 minutes
same,Significance of clotting times at all dose levels and between the dose levels (FIG. 1),platelet aggregation [5],statistically significant
"CC(=O)Oc1ccc(C[C@H](N)C(=O)O)cc1 [OAT, O-acetyl-L-Tyrosine]","Clotting time in minutes, After 4 hrs of administration","platelet aggregation [5]; Group-2, individual rats, group dose not given (doses 10, 20, 50, 100 mg/kg)",8 minutes (2×) and 9 minutes (2×) and 10 minutes
same,"Clotting time in minutes, After 24 hrs of administration",platelet aggregation [5]; [8],8 minutes (2×) and 9 minutes (2×) and 7 minutes
same,"Clotting time in minutes, After 4 hrs of administration",platelet aggregation [5]; [9],9 minutes (2×) and 10 minutes (2×) and 15 minutes
same,"Clotting time in minutes, After 24 hrs of administration",platelet aggregation [5]; [9],9 minutes and 10 minutes (2×) and 8 minutes and 11 minutes
same,"Clotting time in minutes, After 4 hrs of administration",platelet aggregation [5]; [10],18 minutes and 19 minutes (2×) and 17 minutes (2×)
same,"Clotting time in minutes, After 24 hrs of administration",platelet aggregation [5]; [10],14 minutes (3×) and 16 minutes (2×)
same,"Clotting time in minutes, After 4 hrs of administration",platelet aggregation [5]; [11],21 minutes (2×) and 26 minutes and 29 minutes and 25 minutes
same,"Clotting time in minutes, After 24 hrs of administration",platelet aggregation [5]; [11],19 min and 23 min and 22 min and 25 min and 24 min
same,Significance of clotting times at all dose levels and between the dose levels (FIG. 1),platelet aggregation [5],statistically significant
same,Whole blood clotting time,"platelet aggregation [4]; Vol 1 (90 Kg), 1000 mg once, Time 8",6.5 min
same,Whole blood clotting time,"platelet aggregation [4]; Vol 1 (90 Kg), 1000 mg once, Time 12",8.5 min
same,Whole blood clotting time,"platelet aggregation [4]; Vol 1 (90 Kg), 1000 mg once, Time 24",8 min
same,Whole blood clotting time,"platelet aggregation [4]; Vol 1 (90 Kg), 1000 mg once, Time 48",7.5 min
same,Sustained Increase % in clotting time,"platelet aggregation [4]; Vol 1, 1000 mg, at 48 hours after initial dose, listed as O-Acetyl Tyrosine",25%
same,Max % Increase in clotting time,"platelet aggregation [4]; Vol 1, 1000 mg",42%
same,Whole blood clotting time,"platelet aggregation [4]; Vol 2 (60 Kg), 350 mg once, Time 2",5.5 min
same,Whole blood clotting time,"platelet aggregation [4]; Vol 2 (60 Kg), 350 mg once, Time 5",6 min
same,Whole blood clotting time,"platelet aggregation [4]; Vol 2 (60 Kg), 350 mg once, Time 11",6.75 min
same,Whole blood clotting time,"platelet aggregation [4]; Vol 2 (60 Kg), 350 mg once, Time 22.5",6.5 min
same,Sustained Increase % in clotting time,"platelet aggregation [4]; Vol 2, 350 mg, last time point",18%
same,Max % Increase in clotting time,"platelet aggregation [4]; Vol 2, 350 mg, listed as O-Acetyl Tyrosine",23%
same,Time for which increase in clotting time was sustained,"platelet aggregation [4]; Volunteer 1, 1000 mg",at least 48 hours
same,Dose dependence of increase in clotting time,"platelet aggregation [4]; two human volunteers, 1000 mg and 350 mg",dose dependent increase in clotting time
same,Side effects or toxic reactions reported by volunteers,"platelet aggregation [4]; two human volunteers, single dose 1000 mg or 350 mg",Neither volunteer reported any unusual side effects or toxic reactions
